Measurements as given in patent publication US20050169981A1, “Solid compositions comprising ramipril” (priority 2001, published 2005).

Assay: Stability of capsules stored at 50° C. for one week, degradation products by HPLC
Assay type: physicochemical
Conditions: starting ramipril, before encapsulation and storage
Description: For each of the 4 examples, the ingredients in the proportions shown were mixed together. The powder mixture was then passed through a #60 screen and mixed again. The powder mixture was then filled into size 4 two-piece hard gelatin capsules as a net fill of 150 mg per capsules, so that each capsule contained 1.25 mg of ramipril. Capsules of each of the examples were stored at 50° C. for one week and then tested by a high-performance liquid chromatographic method (HPLC) to determine the degradation products as a percentage of the ramipril content.

- level of degradation products in the ramipril used to make the capsules: 0.29%
Compound: CCOC(=O)[C@H](CCc1ccccc1)N[C@@H](C)C(=O)N1[C@H](C(=O)O)C[C@@H]2CCC[C@@H]21 [ramipril, Ramipril]
